# What was measured:
# Assay in all cases: MIC and checkerboard (FIC) assay
# [1] = test system: CA-MRSA strain ST30; format: cell-based, Staphylococcus aureus; settings: ST30
# [2] = test system: clinical fusidic acid resistant MRSA strain 82356; format: cell-based, Staphylococcus aureus; settings: for FIC / MIC combine: 82356
# [3] = test system: clinical fusidic acid resistant MRSA strain 73621; format: cell-based, Staphylococcus aureus; settings: for FIC / MIC combine: 73621
# [4] = test system: S. aureus SA-APH2″-AAC6′ (APH2), resistant to gentamicin; settings: for FIC / MIC combine: APH2
# [5] = test system: S. aureus SA-ANT4′ (ANT4), resistant to fusidic acid; settings: for FIC / MIC combine: ANT4
# [6] = test system: MRSA SA-ST239; settings: ST239
# [7] = test system: S. aureus ATCC25923 (methicillin sensitive); settings: ATCC 25293
# [8] = test system: CA MRSA W44; settings: W44
# [9] = test system: CA MRSA W45; settings: W45
# [10] = test system: CA MRSA W46; settings: W46
# [11] = test system: CA MRSA W47; settings: W47
# [12] = test system: CA MRSA W48; settings: W48
# [13] = test system: CA MRSA W103; settings: W103
# [14] = test system: CA MRSA W113; settings: W113
# [15] = test system: CA MRSA W114; settings: W114
# [16] = test system: HA MRSA W231
# [17] = test system: HA MRSA W232; settings: W232
# [18] = test system: HA MRSA W240; settings: W240
smiles,measurement,setting,value
C=C(C)[C@H](CC=C(C)C)Cc1c(O)cc(OC)c(C(=O)/C=C/c2ccc(O)cc2O)c1O [Kuraridin],MIC alone,[1],8 µg/mL
same,FIC,[1]; ECG with Kur,0.5
same,MIC combine,[1]; ECG with Kur,4 µg/mL
same,FIC,[1]; ECG+Kur+Van,0.125
same,MIC combine,[1]; ECG+Kur+Van,1 µg/mL
same,MIC alone,[1]; Table 5,8 µg/mL
same,MIC alone,[2]; 82356 (fusidic acid resistant),8 µg/mL
same,FIC,[2]; ECG+Kur+Fus,0.25
same,MIC combine,[2]; ECG+Kur+Fus,4 µg/mL
same,FIC,"[2]; ECG+Kur, no Fus",0.5
same,MIC combine,"[2]; ECG+Kur, no Fus",4 µg/mL
same,MIC alone,[3]; 73621 (fusidic acid resistant),8 µg/mL
same,FIC,[3]; ECG+Kur+Fus,0.5
same,MIC combine,[3]; ECG+Kur+Fus,4 µg/mL
same,FIC,"[3]; ECG+Kur, no Fus",0.5
same,MIC combine,"[3]; ECG+Kur, no Fus",4 µg/mL
same,MIC alone,[4]; APH2 (gentamicin resistant),8 µg/mL
same,FIC,[4]; ECG+Kur+Gen,0.25
same,MIC combine,[4]; ECG+Kur+Gen,2 µg/mL
same,FIC,"[4]; ECG+Kur, no Gen",0.25
same,MIC combine,"[4]; ECG+Kur, no Gen",2 µg/mL
same,MIC alone,[5]; ANT4 (fusidic acid resistant),8 µg/mL
same,FIC,[5]; ECG+Kur+Fus,0.25
same,MIC combine,[5]; ECG+Kur+Fus,2 µg/mL
same,FIC,"[5]; ECG+Kur, no Fus",0.25
same,MIC combine,"[5]; ECG+Kur, no Fus",2 µg/mL
same,MIC alone,[6],8 µg/mL
same,FIC,[6]; ECG with Kur,0.5
same,MIC combine,[6]; ECG with Kur,4 µg/mL
same,FIC,[6]; ECG+Kur+Van,0.125
same,MIC combine,[6]; ECG+Kur+Van,1 µg/mL
same,MIC alone,[6]; Table 5,8 µg/mL
same,MIC alone,[7],8 µg/mL
same,FIC,[7]; ECG with Kur,0.5
same,MIC combine,[7]; ECG with Kur,4 µg/mL
same,MIC alone,[8],8 µg/mL
same,FIC,[8]; ECG with Kur,0.25
same,MIC combine,[8]; ECG with Kur,2 µg/mL
same,FIC,[8]; ECG+Kur+Van,0.25
same,MIC combine,[8]; ECG+Kur+Van,2 µg/mL
same,MIC alone,[8]; Table 5,8 µg/mL
same,MIC alone,[9],8 µg/mL
same,FIC,[9]; ECG with Kur,0.5
same,MIC combine,[9]; ECG with Kur,4 µg/mL
same,FIC,[9]; ECG+Kur+Van,0.25
same,MIC combine,[9]; ECG+Kur+Van,2 µg/mL
same,MIC alone,[9]; Table 5,8 µg/mL
same,MIC alone,[10],8 µg/mL
same,FIC,[10]; ECG with Kur,0.5
same,MIC combine,[10]; ECG with Kur,4 µg/mL
same,FIC,[10]; ECG+Kur+Van,0.5
same,MIC combine,[10]; ECG+Kur+Van,4 µg/mL
same,MIC alone,[10]; Table 5,8 µg/mL
same,MIC alone,[11],8 µg/mL
same,FIC,[11]; ECG with Kur,0.5
same,MIC combine,[11]; ECG with Kur,4 µg/mL
same,FIC,[11]; ECG+Kur+Van,0.25
same,MIC combine,[11]; ECG+Kur+Van,2 µg/mL
same,MIC alone,[11]; Table 5,8 µg/mL
same,MIC alone,[12],8 µg/mL
same,FIC,[12]; ECG with Kur,0.5
same,MIC combine,[12]; ECG with Kur,4 µg/mL
same,FIC,[12]; ECG+Kur+Van,0.25
same,MIC combine,[12]; ECG+Kur+Van,2 µg/mL
same,MIC alone,[12]; Table 5,8 µg/mL
same,MIC alone,[13],8 µg/mL
same,FIC,[13]; ECG with Kur,0.5
same,MIC combine,[13]; ECG with Kur,4 µg/mL
same,MIC alone,[14],8 µg/mL
same,FIC,[14]; ECG with Kur,0.5
same,MIC combine,[14]; ECG with Kur,4 µg/mL
same,MIC alone,[15],8 µg/mL
same,FIC,[15]; ECG with Kur,0.5
same,MIC combine,[15]; ECG with Kur,4 µg/mL
same,MIC alone,[16]; W231,4 µg/mL
same,MIC alone,[16]; W231 (gentamicin resistant),8 µg/mL
same,FIC,"[16]; W231, ECG with Kur",0.25
same,MIC combine,"[16]; W231, ECG with Kur",1 µg/mL
same,FIC,"[16]; W231, ECG+Kur+Gen",0.25
same,MIC combine,"[16]; W231, ECG+Kur+Gen",2 µg/mL
same,FIC,"[16]; W231, ECG+Kur+Van",0.125
same,MIC combine,"[16]; W231, ECG+Kur+Van",1 µg/mL
same,FIC,"[16]; W231, ECG+Kur, no Gen",0.25
same,MIC combine,"[16]; W231, ECG+Kur, no Gen",2 µg/mL
same,MIC alone,"[16]; W231, Table 5",8 µg/mL
same,MIC alone,[17],8 µg/mL
same,FIC,[17]; ECG with Kur,0.25
same,MIC combine,[17]; ECG with Kur,2 µg/mL
same,FIC,[17]; ECG+Kur+Van,0.25
same,MIC combine,[17]; ECG+Kur+Van,2 µg/mL
same,MIC alone,[17]; Table 5,8 µg/mL
same,MIC alone,[18],8 µg/mL
same,FIC,[18]; ECG with Kur,0.5
same,MIC combine,[18]; ECG with Kur,4 µg/mL

# From patent publication US11690810B2, “Combination treatment of bacterial infection” (The Chinese University of Hong Kong, priority 2018, dated 2023)
